PubChem BioAssay (NCI)
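Where inhibition never reached the appropriate level, the endpoint shown equals the highest concentration tested. Otherwise, values were interpolated linearly from a five-concentration, 48-hour dose response in 96-well plates. At the TGI there is no net growth.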

Assays:
Experiment in all cases: NCI tumour cell line growth inhibition, 48 h
[1] = tested on: XF 498 CNS
[2] = tested on: SK-MEL-2 melanoma
[3] = tested on: SK-MEL-5 melanoma
[4] = tested on: OVCAR-5 ovarian
[5] = tested on: SNB-78 CNS
[6] = tested on: EKVX NSCLC
[7] = tested on: A549 NSCLC
[8] = tested on: SNB-75 CNS
[9] = tested on: M14 melanoma
[10] = tested on: CCRF-CEM leukemia
[11] = tested on: UO-31 renal
[12] = tested on: SW-620 colon
[13] = tested on: HCC-2998 colon
[14] = tested on: HCT-116 colon
[15] = tested on: MALME-3M melanoma
[16] = tested on: UACC-257 melanoma
[17] = tested on: OVCAR-8 ovarian
[18] = tested on: LXFL 529 NSCLC
[19] = tested on: DLD-1 colon
[20] = tested on: HT29 colon
[21] = tested on: NCI-H460 lung
[22] = tested on: ACHN renal
[23] = tested on: SF-295 CNS
[24] = tested on: MOLT-4 leukemia
[25] = tested on: TK-10 renal
[26] = tested on: HCT-15 colon
[27] = tested on: A498 renal
[28] = tested on: NCI-H23 lung
[29] = tested on: SF-268 CNS
[30] = tested on: OVCAR-3 ovarian
[31] = tested on: OVCAR-4 ovarian
[32] = tested on: HOP-62 NSCLC
[33] = tested on: KM12 colon
[34] = tested on: CAKI-1 renal
[35] = tested on: HOP-18 NSCLC
[36] = tested on: 786-0 renal
[37] = tested on: SNB-19 CNS
[38] = tested on: SF-539 CNS
[39] = tested on: RPMI-8226 leukemia
[40] = tested on: KM20L2 colon
[41] = tested on: SN12C renal
[42] = tested on: K-562 leukemia
[43] = tested on: U251 CNS
[44] = tested on: SK-MEL-28 melanoma
[45] = tested on: NCI-H522 lung
[46] = tested on: SR leukemia
[47] = tested on: HOP-92 NSCLC
[48] = tested on: LOX IMVI melanoma
[49] = tested on: NCI-H226 lung
[50] = tested on: SK-OV-3 ovarian
[51] = tested on: UACC-62 melanoma
[52] = tested on: M19-MEL melanoma
[53] = tested on: HL-60(TB) leukemia
[54] = tested on: DMS 273 small cell lung
[55] = tested on: COLO 205 colon
[56] = tested on: IGROV1 ovarian
[57] = tested on: DMS 114 small cell lung
[58] = tested on: RXF 393 renal

`COc1cc(CC2c3cc(OC)c(OC)cc3CCN2C)ccc1O` (stereo not drawn) was tested, and the TGI [1] was > 100 µM, the TGI [2] was > 100 µM and the TGI [3] was > 100 µM. The TGI [4] was > 100 µM, the TGI [5] was > 100 µM and the TGI [6] was > 100 µM. The TGI [7] was > 100 µM, the TGI [8] was > 100 µM and the TGI [9] was > 100 µM. For the same compound, the TGI [10] was > 100 µM, the TGI [11] was > 100 µM and the TGI [12] was > 100 µM. The TGI [13] was > 100 µM, the TGI [14] was > 100 µM and the TGI [15] was > 100 µM. For the same compound, the TGI [16] was > 100 µM, the TGI [17] was > 100 µM and the TGI [18] was > 100 µM. For the same compound, the TGI [19] was > 100 µM, the TGI [20] was > 100 µM and the TGI [21] was > 100 µM. For the same compound, the TGI [22] was > 100 µM, the TGI [23] was > 100 µM and the TGI [24] was > 100 µM. The TGI [25] was > 100 µM, the TGI [26] was > 100 µM and the TGI [27] was > 100 µM. For the same compound, the TGI [28] was > 100 µM, the TGI [29] was > 100 µM and the TGI [30] was > 100 µM. The TGI [31] was > 100 µM, the TGI [32] was > 100 µM and the TGI [33] was > 100 µM. The TGI [34] was > 100 µM, the TGI [35] was > 100 µM and the TGI [36] was > 100 µM. The TGI [37] was > 100 µM, the TGI [38] was > 100 µM and the TGI [39] was > 100 µM. For the same compound, the TGI [40] was > 100 µM, the TGI [41] was > 100 µM and the TGI [42] was > 100 µM. For the same compound, the TGI [43] was > 100 µM, the TGI [44] was > 100 µM and the TGI [45] was > 100 µM.

For `NS(=O)(=O)c1ccc(Nc2c3ccccc3nc3c(C(=O)N4CCN(CCO)CC4)cccc23)cc1`, the TGI [46] was > 100 µM, the TGI [47] was > 100 µM and the TGI [48] was > 100 µM. For the same compound, the TGI [1] was > 100 µM, the TGI [2] was > 100 µM and the TGI [3] was > 100 µM. The TGI [4] was > 100 µM, the TGI [5] was > 100 µM and the TGI [49] was > 100 µM. For the same compound, the TGI [6] was > 100 µM, the TGI [50] was > 100 µM and the TGI [7] was > 100 µM. The TGI [51] was > 100 µM, the TGI [8] was > 100 µM and the TGI [9] was > 100 µM. For the same compound, the TGI [10] was > 100 µM, the TGI [52] was > 100 µM and the TGI [11] was > 100 µM. For the same compound, the TGI [12] was > 100 µM, the TGI [13] was > 100 µM and the TGI [14] was > 100 µM. For the same compound, the TGI [15] was > 100 µM, the TGI [53] was 65.5 µM and the TGI [16] was > 100 µM. The TGI [17] was > 100 µM, the TGI [54] was > 100 µM and the TGI [18] was > 100 µM. For the same compound, the TGI [20] was > 100 µM, the TGI [21] was > 100 µM and the TGI [55] was > 100 µM. For the same compound, the TGI [22] was > 100 µM, the TGI [23] was > 100 µM and the TGI [24] was > 100 µM. The TGI [56] was > 100 µM, the TGI [25] was > 100 µM and the TGI [26] was > 100 µM. The TGI [27] was > 100 µM, the TGI [57] was > 100 µM and the TGI [58] was > 100 µM. For the same compound, the TGI [28] was > 100 µM, the TGI [29] was > 100 µM and the TGI [30] was > 100 µM. The TGI [31] was > 100 µM, the TGI [32] was > 100 µM and the TGI [33] was > 100 µM. The TGI [34] was > 100 µM, the TGI [35] was > 100 µM and the TGI [36] was > 100 µM. The TGI [37] was > 100 µM, the TGI [38] was > 100 µM and the TGI [40] was > 100 µM. The TGI [41] was > 100 µM, the TGI [42] was > 100 µM and the TGI [43] was > 100 µM. The TGI [44] was > 100 µM and the TGI [45] was > 100 µM.

With `Cc1ccc(NC(=O)CC/C(CC(=O)C(C)(C)C)=N\NC(=O)C[n+]2ccccc2)cc1C` the TGI [46] was > 100 µM, the TGI [47] was > 100 µM and the TGI [48] was > 100 µM. The TGI [1] was > 100 µM, the TGI [2] was > 100 µM and the TGI [3] was > 100 µM. For the same compound, the TGI [4] was > 100 µM, the TGI [5] was > 100 µM and the TGI [49] was > 100 µM. For the same compound, the TGI [6] was > 100 µM, the TGI [50] was > 100 µM and the TGI [7] was > 100 µM. For the same compound, the TGI [51] was > 100 µM, the TGI [8] was > 100 µM and the TGI [9] was > 100 µM. For the same compound, the TGI [10] was > 100 µM, the TGI [52] was > 100 µM and the TGI [11] was > 100 µM. For the same compound, the TGI [12] was > 100 µM, the TGI [13] was > 100 µM and the TGI [14] was > 100 µM. The TGI [15] was > 100 µM, the TGI [53] was > 100 µM and the TGI [16] was > 100 µM. For the same compound, the TGI [17] was > 100 µM, the TGI [54] was > 100 µM and the TGI [18] was > 100 µM. The TGI [20] was > 100 µM, the TGI [21] was > 100 µM and the TGI [55] was > 100 µM. The TGI [22] was > 100 µM, the TGI [23] was > 100 µM and the TGI [24] was > 100 µM. For the same compound, the TGI [56] was > 100 µM, the TGI [25] was > 100 µM and the TGI [26] was > 100 µM. For the same compound, the TGI [27] was > 100 µM, the TGI [57] was > 100 µM and the TGI [58] was > 100 µM. The TGI [28] was > 100 µM, the TGI [29] was > 100 µM and the TGI [30] was > 100 µM. For the same compound, the TGI [31] was > 100 µM, the TGI [32] was > 100 µM and the TGI [33] was > 100 µM. For the same compound, the TGI [34] was > 100 µM, the TGI [35] was > 100 µM and the TGI [36] was > 100 µM. The TGI [37] was > 100 µM, the TGI [38] was > 100 µM and the TGI [39] was > 100 µM. For the same compound, the TGI [40] was > 100 µM, the TGI [41] was > 100 µM and the TGI [42] was > 100 µM. The TGI [43] was > 100 µM, the TGI [44] was > 100 µM and the TGI [45] was > 100 µM.
